Active and inactive are the calls of the source. How the calls were made is not given here.
Test system: CCRIS mutagenicity, Ames/micronucleus/aberration tests
Assay: CCRIS mutagenicity studies
Settings: Test System: AMES SALMONELLA TYPHIMURIUM

Measured: mutagenic call

Cc1ccco1
inactive: Strain/Indicator: TA97, Metabolic Activation: NONE, Method: PREINCUBATION inactive; negative | Strain/Indicator: TA98, Metabolic Activation: HAMSTER, LIVER, S-9, AROCLOR 1254 (10%), Method: PREINCUBATION inactive; negative | Strain/Indicator: TA98, Metabolic Activation: HAMSTER, LIVER, S-9, AROCLOR 1254 (30%), Method: PREINCUBATION inactive; negative | Strain/Indicator: TA98, Metabolic Activation: NONE, Method: PREINCUBATION inactive; negative | Strain/Indicator: TA98, Metabolic Activation: NONE, Method: STANDARD PLATE inactive; negative | Strain/Indicator: TA98, Metabolic Activation: RAT, LIVER, S-9, AROCLOR 1254 (10%), Method: PREINCUBATION inactive; negative | Strain/Indicator: TA98, Metabolic Activation: RAT, LIVER, S-9, AROCLOR 1254 (30%), Method: PREINCUBATION inactive; negative | Strain/Indicator: TA98, Metabolic Activation: RAT, LIVER, S-9, AROCLOR 1254, Method: PREINCUBATION inactive; negative | Strain/Indicator: TA98, Metabolic Activation: S-9, Method: STANDARD PLATE inactive; negative | Strain/Indicator: TA100, Metabolic Activation: HAMSTER, LIVER, S-9, AROCLOR 1254 (10%), Method: PREINCUBATION inactive; negative | Strain/Indicator: TA100, Metabolic Activation: HAMSTER, LIVER, S-9, AROCLOR 1254 (30%), Method: PREINCUBATION inactive; negative | Strain/Indicator: TA100, Metabolic Activation: NONE, Method: PREINCUBATION inactive; negative | Strain/Indicator: TA100, Metabolic Activation: NONE, Method: STANDARD PLATE inactive; negative | Strain/Indicator: TA100, Metabolic Activation: RAT, LIVER, S-9, AROCLOR 1254 (10%), Method: PREINCUBATION inactive; negative | Strain/Indicator: TA100, Metabolic Activation: RAT, LIVER, S-9, AROCLOR 1254 (30%), Method: PREINCUBATION inactive; negative | Strain/Indicator: TA100, Metabolic Activation: RAT, LIVER, S-9, AROCLOR 1254, Method: PREINCUBATION inactive; negative | Strain/Indicator: TA100, Metabolic Activation: S-9, Method: STANDARD PLATE inactive; negative | Strain/Indicator: TA102, Metabolic Activation: HAMSTER, LIVER, S-9, AROCLOR 1254 (10 OR 30%), Method: PREINCUBATION inactive; negative | Strain/Indicator: TA102, Metabolic Activation: NONE, Method: PREINCUBATION inactive; negative | Strain/Indicator: TA102, Metabolic Activation: RAT, LIVER, S-9, AROCLOR 1254 (10%), Method: PREINCUBATION inactive; negative | Strain/Indicator: TA102, Metabolic Activation: RAT, LIVER, S-9, AROCLOR 1254 (30%), Method: PREINCUBATION inactive; negative | Strain/Indicator: TA102, Metabolic Activation: RAT, LIVER, S-9, AROCLOR 1254, Method: PREINCUBATION inactive; negative | Strain/Indicator: TA104, Metabolic Activation: HAMSTER, LIVER, S-9, AROCLOR 1254 (5%), Method: PREINCUBATION inactive; negative | Strain/Indicator: TA104, Metabolic Activation: HAMSTER, LIVER, S-9, AROCLOR 1254 (10 OR 30%), Method: PREINCUBATION inactive; negative | Strain/Indicator: TA104, Metabolic Activation: NONE, Method: PREINCUBATION inactive; negative | Strain/Indicator: TA104, Metabolic Activation: RAT, LIVER, S-9, AROCLOR 1254 (5%), Method: PREINCUBATION inactive; negative | Strain/Indicator: TA104, Metabolic Activation: RAT, LIVER, S-9, AROCLOR 1254 (10 OR 30%), Method: PREINCUBATION inactive; negative | Strain/Indicator: TA1535, Metabolic Activation: HAMSTER, LIVER, S-9, AROCLOR 1254 (10 OR 30%), Method: PREINCUBATION inactive; negative | Strain/Indicator: TA1535, Metabolic Activation: NONE, Method: PREINCUBATION inactive; negative | Strain/Indicator: TA1535, Metabolic Activation: RAT, LIVER, S-9, AROCLOR 1254 (10 OR 30%), Method: PREINCUBATION inactive; negative
